The values that follow come from publication PMC5618632, “In Vitro Glucuronidation of Wushanicaritin by Liver Microsomes, Intestine Microsomes and Expressed Human UDP-Glucuronosyltransferase Enzymes” (International Journal of Molecular Sciences, 2017).

SMILES strings stand for the structures. Values joined by “and” are separate entries in the source; they are usually repeats but may differ in a detail not shown here. Equal entries are not always repeated. Bounds are passed on as bounds.

Data set [1] can be described thus: Glucuronidation by pooled human liver microsomes (HLM), UDPGA-supplemented. The format is in vitro ADME. Here is the method: (§1) The reaction was terminated by adding ice-cold acetonitrile. […] All experiments were performed in triplicate.
(§2) The parameter were as follow. V is the formation rate of the product. Vmax is the maximal velocity. […] Ksi is the substrate inhibition constant. […] (1) V=Vmax ×[S]/Km+[S] (2) V=Vmax ×[S]/Km + [S](1+[S]/Ksi)

Another data set concerns the target T1, UGT1A3 (Homo sapiens, UniProt P35503).
T1 construct: purchased Corning Biosciences
T1 sequence (P35503 29-534): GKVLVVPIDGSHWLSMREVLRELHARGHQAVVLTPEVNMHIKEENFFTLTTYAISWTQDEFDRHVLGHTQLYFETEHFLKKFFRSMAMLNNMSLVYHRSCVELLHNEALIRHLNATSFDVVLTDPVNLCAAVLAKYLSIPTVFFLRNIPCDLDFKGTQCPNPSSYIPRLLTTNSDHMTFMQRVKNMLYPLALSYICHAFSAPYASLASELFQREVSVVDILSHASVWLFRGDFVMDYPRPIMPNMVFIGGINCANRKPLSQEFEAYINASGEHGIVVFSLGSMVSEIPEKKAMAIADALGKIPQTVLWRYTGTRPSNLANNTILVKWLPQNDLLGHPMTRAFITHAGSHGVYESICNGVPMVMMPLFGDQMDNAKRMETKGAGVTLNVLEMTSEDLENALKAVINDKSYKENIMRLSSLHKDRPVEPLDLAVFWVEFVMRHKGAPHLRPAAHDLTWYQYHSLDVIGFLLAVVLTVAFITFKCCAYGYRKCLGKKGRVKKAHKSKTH
The data set can be described thus: Glucuronidation by expressed UGT1A3. It counts as in vitro ADME. Particulars: human, expressed UGT1A3 (Supersome); probe substrate glucuronidation; UGT1A3. Here is the method: as §1
(§3) A series of working solutions of wushanicaritin were determined by the Acquity™ UPLC I-Class system equipped with a BEH C18 column (2.1 mm × 50 mm, 1.7 µm, Waters, Ireland, Part No. 186002350). The gradient elution program was the same as the UPLC condition of the structural identification of wushanicaritin glucuronides above. The detection wavelength was set at 270 nm, and the injection volume was 8 µL.
as §2
(§4) The contribution of individual expressed UGT enzymes to wushanicaritin glucuronidation in HLM was evaluated by the relative activity factor (RAF) approach as described in previous studies. The relative activity factor was defined as the activity ratio of HLM to an expressed UGT enzyme (Supersome) toward a probe substrate for this enzyme using Equation (3). The relative amount of wushanicaritin glucuronidation in HLM attributed to an expressed UGT enzyme was estimated by multiplying the glucuronidation activity (i.e., the intrinsic clearance) derived with this enzyme by the corresponding RAF. […] The contributions of individual UGT enzyme were calculated according to Equation (4). […]

A further data set concerns the target T2, expressed human UGT1A3 (Homo sapiens, UniProt P35503).
T2 construct: purchased Corning Biosciences
T2 sequence (P35503 29-534): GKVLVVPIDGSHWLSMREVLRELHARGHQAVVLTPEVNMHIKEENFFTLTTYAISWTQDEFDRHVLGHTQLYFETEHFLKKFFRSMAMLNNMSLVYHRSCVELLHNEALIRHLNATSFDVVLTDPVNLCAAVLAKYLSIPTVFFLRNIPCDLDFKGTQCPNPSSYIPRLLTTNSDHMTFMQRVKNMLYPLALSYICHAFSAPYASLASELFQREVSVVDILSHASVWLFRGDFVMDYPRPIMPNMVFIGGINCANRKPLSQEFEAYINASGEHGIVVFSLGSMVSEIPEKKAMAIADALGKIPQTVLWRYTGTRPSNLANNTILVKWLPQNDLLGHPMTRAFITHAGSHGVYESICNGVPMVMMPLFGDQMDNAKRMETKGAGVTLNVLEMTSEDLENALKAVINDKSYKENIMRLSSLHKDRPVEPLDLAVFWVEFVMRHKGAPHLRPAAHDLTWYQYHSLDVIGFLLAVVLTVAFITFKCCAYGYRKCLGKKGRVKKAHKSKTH
The data set can be described thus: Glucuronidation by expressed UGT1A3. It counts as in vitro ADME. The settings on record: relative activity factor for UGT1A3 = CLint(probe, pHLM)/CLint(probe, Supersome). How it is done:
as §1, §3, §2, §4

A short description of data set [2]: Glucuronidation by human intestine microsomes (HIM). The format is in vitro ADME. Particulars: for Km: human, intestine microsomes, read-out: Km or S50. Here is the method: as §1, §2
In a further data set the target is T3, expressed human UGT1A1 (Homo sapiens, UniProt P22309).
T3 sequence (P22309 26-533): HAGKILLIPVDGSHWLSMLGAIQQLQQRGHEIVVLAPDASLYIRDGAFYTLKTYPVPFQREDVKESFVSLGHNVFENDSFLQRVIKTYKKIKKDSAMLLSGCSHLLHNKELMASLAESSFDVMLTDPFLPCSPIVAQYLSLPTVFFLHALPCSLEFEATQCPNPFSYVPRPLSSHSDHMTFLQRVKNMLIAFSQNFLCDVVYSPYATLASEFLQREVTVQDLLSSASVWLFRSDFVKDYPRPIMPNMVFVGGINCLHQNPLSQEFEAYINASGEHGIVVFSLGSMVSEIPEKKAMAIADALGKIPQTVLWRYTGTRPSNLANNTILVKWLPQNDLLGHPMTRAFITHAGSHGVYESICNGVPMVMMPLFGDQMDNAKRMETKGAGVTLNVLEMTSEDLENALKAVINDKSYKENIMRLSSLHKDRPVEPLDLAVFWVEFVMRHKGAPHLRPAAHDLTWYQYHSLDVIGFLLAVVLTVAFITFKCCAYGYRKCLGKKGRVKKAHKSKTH
The data set can be described thus: Glucuronidation by expressed UGT1A1. The settings on record: substrate inhibition constant; formation of G1 (3-O-glucuronide); UGT1A1. Here is the method:
as §1
The gradient elution program was the same as the UPLC condition of the structural identification of wushanicaritin glucuronides above. The detection wavelength was set at 270 nm, and the injection volume was 8 µL.
as §2
The contribution of individual expressed UGT enzymes to wushanicaritin glucuronidation in HLM was evaluated by the relative activity factor (RAF) approach as described in previous studies. The relative activity factor was defined as the activity ratio of HLM to an expressed UGT enzyme (Supersome) toward a probe substrate for this enzyme using Equation (3). The relative amount of wushanicaritin glucuronidation in HLM attributed to an expressed UGT enzyme was estimated by multiplying the glucuronidation activity (i.e., the intrinsic clearance) derived with this enzyme by the corresponding RAF. […] The contributions of individual UGT enzyme were calculated according to Equation (4). (3) RAF=CLint{probe,pHLM}/CLint{probe,Supersome} (4) Contribution of UGTs=CLint(wushanica ritin,UGTs)/CLint(wushanica ritin,pHLM)×RAF

The nature of data set [3]: Glucuronidation by monkey liver microsomes (MkLM). It counts as in vitro ADME. The settings on record: for Km: monkey, liver microsomes, read-out: Km or S50; for Ki: substrate inhibition constant. Here is the method: as §1, §2
(Microsomes from liver hold many membrane-bound enzymes, among them those of drug oxidation.)

A short description of data set [4]: Glucuronidation by rat liver microsomes (RLM). The format is in vitro ADME. The settings on record: for Km: rat, liver microsomes, read-out: Km or S50; for Ki: substrate inhibition constant. How it is done:
as §1, §2

A short description of data set [5]: Glucuronidation by dog liver microsomes (DLM). The format is in vitro ADME. The settings on record: for Km: dog, liver microsomes, read-out: Km or S50; for Ki: substrate inhibition constant. Here is the method:
as §1, §2

Data set [6] is described as follows: Glucuronidation by rabbit liver microsomes (RaLM). The format is in vitro ADME. Particulars: for Km: rabbit, liver microsomes, read-out: Km or S50. Here is the method: as §1, §2
A short description of data set [7]: Glucuronidation by guinea pig liver microsomes (GpLM). The settings on record: for Km: guinea pig, liver microsomes, read-out: Km or S50. The format is in vitro ADME. Here is the method:
as §1, §2

For data set [8] the following is noted: human, pH 7.4.
Description: Wushanicaritin was incubated with HLM, HIM and expressed UGTs enzymes to determine the rates of glucuronidation as published previously [12, 23, 31]. Briefly, the incubation mixture mainly contained 50 mM Tris-hydrochloric acid buffer (pH 7.4), 0.88 mM MgCl2, 22 µg/mL alamethicin, 4.4 mM saccharolactone and 3.5 mM UDPGA [32]. The reaction was terminated by adding ice-cold acetonitrile. The samples were vortexed and centrifuged at 13,800× g for 10 min. The supernatant was subjected to UPLC/Q-TOF-MS (Waters Corporation, Manchester, UK) analysis. […] Similarly, wushanicaritin was incubated with DLM, RLM, MkLM, RaLM and GpLM in the same way as for HLM. All experiments were performed in triplicate. Preliminary experiments were performed to ensure that the rates of glucuronidation were determined under linear conditions with respect to the incubation time and protein concentration.
Serial concentrations of wushanicaritin (0.156–20 µM) were incubated with HLM, HIM and expressed UGTs enzymes to determine wushanicaritin glucuronidation rates. […] Appropriate models were selected by visual inspection of the Eadie–Hofstee plot [34]. Model fitting and parameter estimation were performed by GraphPad Prism V5 software (GraphPad Software, Inc., San Diego, CA, USA).
V is the formation rate of the product. Vmax is the maximal velocity. Km is the Michaelis constant, and [S] is the substrate. […]
On the set-up of data set [9]: method as in PMID 21968061. Particulars: DPPH radical scavenging (antioxidant activity); cited from earlier work. On the technique in general: DPPH is a stable violet radical that fades when it is reduced.
Setting [10] is: formation of G1 (3-O-glucuronide).
Where [11] appears, read: formation of G2 (7-O-glucuronide).
The mark [12] stands for this setting: pH 7.4, formation of G1 (3-O-glucuronide).
Where [13] appears, read: pH 7.4, formation of G2 (7-O-glucuronide).

The microsomal CLint is the capacity of the preparation to metabolise the compound, expressed as a volume cleared per time. By Km is commonly meant the substrate concentration at which the rate is half of its maximum. Usually Vmax stands for the rate approached at saturating substrate. For `C[C@H](CCC(=O)O)[C@H]1CC[C@H]2[C@@H]3[C@H](O)C[C@@H]4C[C@H](O)CC[C@]4(C)[C@H]3CC[C@]12C` [CDCA, chenodeoxycholic acid, reference compound], the microsomal CLint in [1] (human, pooled liver microsomes, probe substrate glucuronidation) was 8.86 ± 0.74 µL/min/mg; on UGT1A3 it was 18.5 ± 1.28 µL/min/mg. Besides, in [1] (human, pooled liver microsomes, probe substrate glucuronidation, read-out: Km), the Michaelis constant (Km) was determined as 14.3 ± 1.16 µM. Moreover, the maximal velocity (Vmax) in data set [1] (probe substrate glucuronidation) stood at 0.13 ± 0.003 nmol/min/mg. For the same molecule, the RAF at expressed human UGT1A3 is recorded as 0.48.
By IC50 is commonly meant the concentration at which inhibition is half-maximal. In the case of `COc1ccc(-c2oc3c(CCC(C)(C)O)c(O)cc(O)c3c(=O)c2O)cc1` [wushanicaritin], the maximal velocity (Vmax) in data set [1] (setting [10]) was 1.34 nmol/min/mg and 1.34 ± 0.08 nmol/min/mg; in data set [1] (setting [11]), 0.35 nmol/min/mg and 0.35 ± 0.01 nmol/min/mg; in [2] (setting [10]) it was 0.74 nmol/min/mg and 0.74 ± 0.05 nmol/min/mg; in data set [2] (setting [11]) it was 1.34 nmol/min/mg and 1.34 ± 0.10 nmol/min/mg; in data set [3] (setting [10]), 0.22 ± 0.02 nmol/min/mg; in data set [3] (setting [11]), 0.21 ± 0.008 nmol/min/mg. Also, the maximal velocity (Vmax) in data set [4] (setting [10]) turned out to be 0.34 ± 0.01 nmol/min/mg; in data set [4] (setting [11]) it was 0.37 ± 0.009 nmol/min/mg; in data set [5] (setting [10]) it was 0.19 ± 0.01 nmol/min/mg; in data set [5] (setting [11]), 0.32 ± 0.02 nmol/min/mg; in data set [6] (setting [10]) it was 0.11 ± 0.004 nmol/min/mg; in data set [6] (setting [11]) it was 0.56 ± 0.02 nmol/min/mg. For the same molecule, the Vmax in data set [7] (setting [10]) came out at 0.05 ± 0.002 nmol/min/mg; in [7] (setting [11]), 1.43 ± 0.06 nmol/min/mg. Moreover, the Km in data set [1] (human, pooled liver microsomes, pH 7.4, formation of G1 (3-O-glucuronide), read-out: Km or S50) came to 1.07 ± 0.13 µM; in data set [1] (human, pooled liver microsomes, pH 7.4, formation of G2 (7-O-glucuronide), read-out: Km or S50), 0.5 ± 0.08 µM; in data set [2] (setting [12]), 4.24 ± 0.75 µM; in data set [2] (setting [13]), 5.91 ± 1.1 µM; in data set [3] (setting [12]), 1.58 ± 0.25 µM; in [3] (setting [13]) it was 0.94 ± 0.08 µM. Besides, the Michaelis constant (Km) in [4] (setting [12]) is 0.66 ± 0.06 µM; in data set [4] (setting [13]) it was 0.45 ± 0.03 µM; in data set [5] (setting [12]), 1.11 ± 0.16 µM; in data set [5] (setting [13]), 1.17 ± 0.13 µM; in data set [6] (setting [12]), 2.22 ± 0.26 µM; in data set [6] (setting [13]) it was 3.29 ± 0.39 µM. The Km in data set [7] (setting [12]) was 2.53 ± 0.3 µM; in [7] (setting [13]) it was 0.93 ± 0.06 µM. The Ki in data set [1] (substrate inhibition constant, formation of G1 (3-O-glucuronide)) is 32.99 µM and 32.990 ± 6.717 µM; at expressed human UGT1A1, 17.150 ± 4.478 µM; in data set [3] (setting [10]), 11.57 ± 2.15 µM; in [3] (setting [11]), 36.23 ± 5.13 µM; in data set [4] (setting [10]), 37.11 ± 5.82 µM; in data set [4] (setting [11]), 44.22 ± 5.42 µM. For the same molecule, the values for the Ki in [5] (setting [10]) and in data set [5] (setting [11]) were 29.09 ± 6.58 µM and 44.14 ± 9.09 µM, respectively. For the same molecule, the “species difference in hepatic glucuronidation” value in data set [8] (dog, rat, monkey, rabbit, guinea pig) was “up to 60.0 fold”. Also, in [8], the “variability of kinetic parameters, rat versus humans” value is given as not above 2.5 fold. Also, the IC50 in data set [9] was 35.3 µM.
